Laboratory results from patent US4666931A, “Benzofuran derivatives useful in treating diabetic complications” (Kaken Pharmaceutical Co., Ltd., priority 1984, dated 1987).
Like-named read-outs stand apart in the source and are kept apart here.

What was measured:
[1] = target: T1, aldose reductase from rat lens (Rattus norvegicus, UniProt P07943); assay: Aldose reductase inhibiting activity; format: biochemical; conditions: DL-glyceraldehyde substrate, Table 2, read-out: IC50 (50% inhibition concentration in M)
T1 construct: the supernatant was prepared as the crude enzyme solution; from tissue; host or cells: lens of male Wistar rats, 10,000 g supernatant of homogenate (crude enzyme)
Method: Wistar male rats were sacrificed by decapitation and the lenses were taken out to be homogenized with a 0.1M phosphate buffer [pH 6.8, containing 1 mM of mercaptoethanol and 1 mM of nicotinamide-adenine dinucleotide phosphate (NADP)]. The homogenate was then centrifuged at 10,000 g for 15 minutes and the supernatant was prepared as the crude enzyme solution.

[2] = system: aggregation of the washed rabbit platelet by thrombin; assay: Platelet aggregation inhibiting activity (washed rabbit platelet, thrombin); format: cell-based; conditions: for IC50: Oryctolagus cuniculus, Platelet; for platelet aggregation inhibiting activity relative to Persantin: compared with Persantin (dipyridamole)
Method: Blood samples were collected from the auricular blood vessel of rabbits (white local breed), and washed platelets were prepared therefrom by the method of Baenziger et al. (N. L. Baenziger and P. W. Majerus, Methods Enzymol., 31, 149 to 155 (1974). The platelets were suspended in a 15 mM Tris-hydrochloric acid buffer with a final concentration of 6×10^8 cells/ml (Tris: tris(hydroxymethyl)aminomethane). Each test compound of the compound Nos. 5, 8, 9, 11, 23, 29, 30 and 33 and Persantin® was added thereto and incubation was carried out at 37° C. for 2 minutes. Then the platelets were stimulated by addition of thrombin (0.2 unit/ml of final concentration; made by Mochida Pharmaceutical Co.) and the aggregation inhibiting activity was estimated by the observation of the aggregation reaction using an aggregometer (made by Briston Co.).
The results are shown in Table 3 in terms of IC50 (50% inhibiton concentration in M).

[3] = Acute toxicity test in mice (oral); conditions: mouse, in vivo, po
Method: (§1) Acute toxicity test in mice was carried out on the benzofuran derivatives of the compound Nos. 3, 5, 9, 21, 23, 26, 29 and 34.

mice = assay: Acute toxicity test in mice (oral); conditions: mice, oral; for death up to the dose of 3 g/kg body weight: up to 3 g/kg
Method: as §1

[4] = system: production of malondialdehyde from arachidonic acid by rabbit platelets; assay: Arachidonic acid metabolism inhibiting activity: production of malondialdehyde from arachidonic acid by rabbit platelets; format: cell-based; conditions: Oryctolagus cuniculus, Platelet, arachidonic acid 0.2 mM, read-out: concentration showing 50% inhibition against the production of malondialdehyde from arachidonic acid
Method: Washed rabbit platelets prepared as in the platelet aggregation inhibiting activity test were suspended in 15 mM Tris-hydrochloric acid buffer with a final concentration of 1×10^8 cell/ml, to which each test compound of the compound Nos. 8, 13, 14, 19, 20, 23, 29, 30 and 33 were added and the resultant was preincubated at 37° C. for five minutes. Then arachidonic acid (a final concentration: 0.2 mM, made by Sigma Chemical Co.) was added thereto and the mixture was preincubated for 1 minute. An amount of the produced malondialdehyde was measured according to the thiobarbiturates method (Ed. Aoki and Shibata, Ketsuekigaku Kenkyukensaho, P 441 to 447).

cyclooxygenase = assay: Cyclooxygenase inhibition: malondialdehyde production from arachidonic acid, 9000 G supernatant of lung homogenate from guinea pig; format: biochemical; conditions: guinea pig lung 9000 G supernatant, compared with aspirin
Method: Lung from guinea pig was washed with physiological saline and homogenized in 0.1M Tris-hydrochloric acid buffer to prepare a supernatant by cooled centrifugation (9000 G).
The inhibiting activity against cyclooxygenase was measured by using the 9000 G supernatant as a source of cyclooxygenase in the presence of 1 mM epinephiline.

[5] = range for nine compounds, read-out: concentration showing 50% inhibition against the aggregation of the washed rabbit platelet by thrombin
[6] = washed rabbit platelets, thrombin 0.2 unit/ml, 37° C., Table 3, read-out: IC50 (50% inhibition concentration in M)

Structure (SMILES) | IC50 [1] | IC50 [2, 5] | platelet aggregation inhibiting activity relative to Persantin [2] | LD50 at 336 h [3] | death up to the dose of 3 g/kg body weight (mice) | IC50 [2, 6] | death up to 2 g/kg body weight (mice) | IC50 [4] | inhibition against malondialdehyde production relative to aspirin (cyclooxygenase)
CCCCCOc1ccc(S(=O)(=O)NCC(=O)O)c2cc(C(C)=O)oc12 [Compound 5, 2-acetyl-4-(N-carboxymethylsulfamoyl)-7-n-pentyloxybenzofuran] | 0.05 µM | 20 to 200 µM | equivalent to or more than | > 3000 mg/kg | no death |  |  |  | 
CCCCOc1ccc(S(=O)(=O)N(C)CC(=O)O)c2cc(C(C)=O)oc12 [Compound 9, 2-acetyl-4-(N-methyl-N-carboxymethylsulfamoyl)-7-n-butoxybenzofuran] | 1 µM | 20 to 200 µM | equivalent to or more than | > 3000 mg/kg | no death | 600 µM |  |  | 
CC(=O)c1cc2c(S(=O)(=O)NCC(=O)O)ccc(OCc3ccc([N+](=O)[O-])cc3)c2o1 [Compound 23, 2-acetyl-4-(N-carboxymethylsulfamoyl)-7-p-nitrobenzyloxybenzofuran] | 0.05 µM | 20 to 200 µM | equivalent to or more than | > 2000 mg/kg |  | 80 µM | no death | 10 to 100 µM | equivalent to or more than
CC(=O)COc1ccc(S(=O)(=O)NCC(=O)O)c2cc(C(C)=O)oc12 [Compound 26, 2-acetyl-4-(N-carboxymethylsulfamoyl)-7-acetonyloxybenzofuran] | 0.2 µM |  |  | > 2000 mg/kg |  |  | no death |  | 
CC(=O)c1cc2c(S(=O)(=O)NCC(=O)O)ccc(OCc3ccccc3)c2o1 [Compound 29, 2-acetyl-4-(N-carboxymethylsulfamoyl)-7-benzyloxybenzofuran] | 0.05 µM | 20 to 200 µM | equivalent to or more than | > 2000 mg/kg |  | 35 µM | no death | 10 to 100 µM | equivalent to or more than
CC(=O)c1cc2c(S(=O)(=O)N(CC(=O)O)Cc3ccc(Cl)cc3)ccc(OCc3ccc(Cl)cc3)c2o1 [Compound 34, 2-acetyl-4-(N-p-chlorobenzyl-N-carboxymethylsulfamoyl)-7-p-chlorobenzyloxybenzofuran] | 0.8 µM |  |  | > 2000 mg/kg |  |  | no death |  | 
